Data taken from BigSolDB 2.1.

CC(C)COc1ccccc1B(O)O
Conditions	solubility (mole fraction)
in 3-pentanone, 295.65 K	0.301
in 3-pentanone, 296.55 K	0.288
in 3-pentanone, 297.65 K	0.304
in 3-pentanone, 298.55 K	0.324
in 3-pentanone, 300.65 K	0.306
in 3-pentanone, 300.85 K	0.322
in 3-pentanone, 302.55 K	0.322
in 3-pentanone, 303.05 K	0.338
in 3-pentanone, 305.35 K	0.356
in 3-pentanone, 306.05 K	0.342
in 3-pentanone, 308.35 K	0.362
in 3-pentanone, 309.05 K	0.378
in 3-pentanone, 312.05 K	0.376
in 3-pentanone, 312.25 K	0.396
in 3-pentanone, 313.85 K	0.426
in 3-pentanone, 318.15 K	0.407
in 3-pentanone, 318.85 K	0.444
in 3-pentanone, 319.15 K	0.478
in 3-pentanone, 319.55 K	0.455
in 3-pentanone, 322.55 K	0.482
in 3-pentanone, 324.85 K	0.503
in 3-pentanone, 325.55 K	0.526
in 3-pentanone, 328.85 K	0.547
in 3-pentanone, 331.25 K	0.609
in 3-pentanone, 337.25 K	0.67
in 3-pentanone, 345.35 K	0.766
in acetone, 293.65 K	0.281
in acetone, 300.35 K	0.314
in acetone, 303.65 K	0.339
in acetone, 309.35 K	0.372
in acetone, 315.65 K	0.411
in acetone, 320.75 K	0.467
in acetone, 327.35 K	0.533
in acetone, 333.95 K	0.611
in acetone, 337.75 K	0.639
in acetone, 341.35 K	0.695
in acetone, 344.45 K	0.737
in acetone, 347.75 K	0.8
in acetone, 350.55 K	0.823
in acetone, 353.65 K	0.872
in acetone, 355.75 K	0.901
in chloroform, 295.15 K	0.277
in chloroform, 299.15 K	0.307
in chloroform, 304.45 K	0.338
in chloroform, 308.15 K	0.361
in chloroform, 313.15 K	0.402
in chloroform, 317.65 K	0.432
in chloroform, 320.65 K	0.465
in chloroform, 325.75 K	0.514
in chloroform, 328.65 K	0.547
in chloroform, 335.05 K	0.618
in chloroform, 336.15 K	0.637
in chloroform, 341.15 K	0.7
in chloroform, 344.75 K	0.715
in chloroform, 348.45 K	0.774
in chloroform, 350.25 K	0.822
in chloroform, 352.15 K	0.866
in chloroform, 355.15 K	0.895
in dipropyl ether, 294.15 K	0.157
in dipropyl ether, 300.35 K	0.185
in dipropyl ether, 304.35 K	0.209
in dipropyl ether, 311.05 K	0.259
in dipropyl ether, 316.45 K	0.305
in dipropyl ether, 320.15 K	0.345
in dipropyl ether, 325.05 K	0.405
in dipropyl ether, 329.15 K	0.446
in dipropyl ether, 330.15 K	0.463
in dipropyl ether, 332.15 K	0.499
in dipropyl ether, 335.05 K	0.532
in dipropyl ether, 338.65 K	0.606
in dipropyl ether, 340.75 K	0.641
in dipropyl ether, 345.65 K	0.73
in dipropyl ether, 348.75 K	0.764
in dipropyl ether, 351.65 K	0.813
in dipropyl ether, 353.05 K	0.857
in methylcyclohexane, 300.05 K	0.0138
in methylcyclohexane, 305.15 K	0.0169
in methylcyclohexane, 305.85 K	0.0208
in methylcyclohexane, 309.15 K	0.0262
in methylcyclohexane, 312.25 K	0.0333
in methylcyclohexane, 315.55 K	0.046
in methylcyclohexane, 318.15 K	0.0589
in methylcyclohexane, 321.95 K	0.0885
in methylcyclohexane, 323.35 K	0.103
in methylcyclohexane, 324.35 K	0.118
in methylcyclohexane, 325.95 K	0.139
in methylcyclohexane, 327.05 K	0.163
in methylcyclohexane, 329.05 K	0.198
in methylcyclohexane, 331.25 K	0.21
in methylcyclohexane, 331.85 K	0.236
in methylcyclohexane, 332.95 K	0.253
in methylcyclohexane, 334.95 K	0.328
in methylcyclohexane, 336.05 K	0.354
in methylcyclohexane, 336.95 K	0.371
in methylcyclohexane, 340.05 K	0.479
in methylcyclohexane, 343.75 K	0.567
in methylcyclohexane, 344.45 K	0.628
in methylcyclohexane, 349.15 K	0.731
